# Results: patent US7553864B2, “Compounds for the treatment of inflammatory disorders and microbial diseases” (Schering Corporation, priority 2005, dated 2009)
# System: LpxC enzyme
# Assay: LpxC enzyme assay (RapidFire high-throughput mass spectrometry)
# Assay type: biochemical
# Settings: concentration 0.10 (unit not given)
# Experimental: The standard LpxC assay consists of 0.2 nM LpxC enzyme, 1.0 μM UDP-3-O—(R-3-hydroxymyristoyl)-N-acetylglucosamine, and test compound, in assay buffer and 2% DMSO. Assay buffer is comprised of 25 mM HEPES, pH 7.3, 150 mM NaCl, 2.0 mM DTT, and 0.01% BSA. The enzyme reaction is carried out in a 96-well assay plate, in a final volume of 102 μL. Solutions of test compounds are prepared in 100% DMSO. Reaction additions, in order, are (1) 2.0 μL compound solution, (2) 80 μL of assay buffer, (3) 10 μL of 10 μM UDP-3-O—(R-3-hydroxymyristoyl)-N-acetylglucosamine (in assay buffer) and, (4) 10 μL of LpxC enzyme (20 nM in assay buffer) to initiate the reaction. In positive control reactions, addition (1) has 2.0 μL of 100% DMSO (without compound); these reactions are used as the total signal (TSB) value. Reactions are incubated at room temperature for 60 minutes when 10 μL of 1 N HCl is added to stop the reaction. The plate is shaken by hand for 10 seconds to ensure complete quenching. Assay plates are sealed with foil tape, and stored at −80° C. for 24-48 hr prior to analysis.
# The concentrations of substrate and product in the reaction mixtures are determined with BioTrove's proprietary RapidFire™ high-throughput mass spectrometry (HTMS). Assay mixtures are partially purified with reverse phase chromatography, where they are washed with water containing 5 mM ammonium formate and eluted onto the mass spectrometer in 80% acetonitrile, 20% water, and 5 mM ammonium formate. The mass spectrometry peak areas of the substrate and product are measured to determine the concentration of these analytes. The assay signal is the percentage of substrate that is converted to product. Percent inhibition, % I, in test samples is determined from the following equation: […]
row,Compound,LpxC enzyme assay rating (% inhibition at indicated concentrations)
1,CNC(=O)[C@H](O)[C@@H](O)C(=O)N1CCC(c2ccc(C(F)(F)F)cc2)CC1 [Compound 35],C (less than 10% inhibition)
2,CNC(=O)[C@H](O)[C@@H](O)C(=O)N1CCC(c2ccc3ccccc3c2)CC1 [Compound 36],C (less than 10% inhibition)
3,CNC(=O)[C@H](O)[C@@H](O)C(=O)N1CCN(c2ccc(-c3ncccn3)cc2)CC1 [Compound 37],C (less than 10% inhibition)
4,CNC(=O)[C@H](O)[C@@H](O)C(=O)Nc1ccc(N2CCN(C)CC2)cc1 [Compound 38],C (less than 10% inhibition)
5,CNC(=O)[C@H](O)[C@@H](O)C(=O)Nc1ccc(OCCN(C)C)cc1 [Compound 39],C (less than 10% inhibition)

# Same assay, conditions: concentration 0.20 (unit not given)
row,Compound,LpxC enzyme assay rating (% inhibition at indicated concentrations)
1,CNC(=O)[C@H](O)[C@@H](O)C(=O)N1CCC(c2ccc(C(F)(F)F)cc2)CC1 [Compound 35],C (less than 10% inhibition)
2,CNC(=O)[C@H](O)[C@@H](O)C(=O)N1CCC(c2ccc3ccccc3c2)CC1 [Compound 36],C (less than 10% inhibition)
3,CNC(=O)[C@H](O)[C@@H](O)C(=O)N1CCN(c2ccc(-c3ncccn3)cc2)CC1 [Compound 37],C (less than 10% inhibition)
4,CNC(=O)[C@H](O)[C@@H](O)C(=O)Nc1ccc(N2CCN(C)CC2)cc1 [Compound 38],C (less than 10% inhibition)
5,CNC(=O)[C@H](O)[C@@H](O)C(=O)Nc1ccc(OCCN(C)C)cc1 [Compound 39],C (less than 10% inhibition)

# Same assay, conditions: concentration 0.39 (unit not given)
row,Compound,LpxC enzyme assay rating (% inhibition at indicated concentrations)
1,CNC(=O)[C@H](O)[C@@H](O)C(=O)N1CCC(c2ccc(C(F)(F)F)cc2)CC1 [Compound 35],C (less than 10% inhibition)
2,CNC(=O)[C@H](O)[C@@H](O)C(=O)N1CCC(c2ccc3ccccc3c2)CC1 [Compound 36],C (less than 10% inhibition)
3,CNC(=O)[C@H](O)[C@@H](O)C(=O)N1CCN(c2ccc(-c3ncccn3)cc2)CC1 [Compound 37],C (less than 10% inhibition)
4,CNC(=O)[C@H](O)[C@@H](O)C(=O)Nc1ccc(N2CCN(C)CC2)cc1 [Compound 38],C (less than 10% inhibition)
5,CNC(=O)[C@H](O)[C@@H](O)C(=O)Nc1ccc(OCCN(C)C)cc1 [Compound 39],C (less than 10% inhibition)

# Same assay, conditions: concentration 0.78 (unit not given)
row,Compound,LpxC enzyme assay rating (% inhibition at indicated concentrations)
1,CNC(=O)[C@H](O)[C@@H](O)C(=O)N1CCC(c2ccc(C(F)(F)F)cc2)CC1 [Compound 35],C (less than 10% inhibition)
2,CNC(=O)[C@H](O)[C@@H](O)C(=O)N1CCC(c2ccc3ccccc3c2)CC1 [Compound 36],C (less than 10% inhibition)
3,CNC(=O)[C@H](O)[C@@H](O)C(=O)N1CCN(c2ccc(-c3ncccn3)cc2)CC1 [Compound 37],C (less than 10% inhibition)
4,CNC(=O)[C@H](O)[C@@H](O)C(=O)Nc1ccc(N2CCN(C)CC2)cc1 [Compound 38],C (less than 10% inhibition)
5,CNC(=O)[C@H](O)[C@@H](O)C(=O)Nc1ccc(OCCN(C)C)cc1 [Compound 39],B (10-30% inhibition)

# Same assay, conditions: concentration 1.56 (unit not given)
row,Compound,LpxC enzyme assay rating (% inhibition at indicated concentrations)
1,CNC(=O)[C@H](O)[C@@H](O)C(=O)N1CCC(c2ccc(C(F)(F)F)cc2)CC1 [Compound 35],B (10-30% inhibition)
2,CNC(=O)[C@H](O)[C@@H](O)C(=O)N1CCC(c2ccc3ccccc3c2)CC1 [Compound 36],C (less than 10% inhibition)
3,CNC(=O)[C@H](O)[C@@H](O)C(=O)N1CCN(c2ccc(-c3ncccn3)cc2)CC1 [Compound 37],C (less than 10% inhibition)
4,CNC(=O)[C@H](O)[C@@H](O)C(=O)Nc1ccc(N2CCN(C)CC2)cc1 [Compound 38],C (less than 10% inhibition)
5,CNC(=O)[C@H](O)[C@@H](O)C(=O)Nc1ccc(OCCN(C)C)cc1 [Compound 39],C (less than 10% inhibition)

# Same assay, conditions: concentration 3.13 (unit not given)
row,Compound,LpxC enzyme assay rating (% inhibition at indicated concentrations)
1,CNC(=O)[C@H](O)[C@@H](O)C(=O)N1CCC(c2ccc(C(F)(F)F)cc2)CC1 [Compound 35],C (less than 10% inhibition)
2,CNC(=O)[C@H](O)[C@@H](O)C(=O)N1CCC(c2ccc3ccccc3c2)CC1 [Compound 36],C (less than 10% inhibition)
3,CNC(=O)[C@H](O)[C@@H](O)C(=O)N1CCN(c2ccc(-c3ncccn3)cc2)CC1 [Compound 37],C (less than 10% inhibition)
4,CNC(=O)[C@H](O)[C@@H](O)C(=O)Nc1ccc(N2CCN(C)CC2)cc1 [Compound 38],C (less than 10% inhibition)
5,CNC(=O)[C@H](O)[C@@H](O)C(=O)Nc1ccc(OCCN(C)C)cc1 [Compound 39],B (10-30% inhibition)

# Same assay, conditions: concentration 6.25 (unit not given)
row,Compound,LpxC enzyme assay rating (% inhibition at indicated concentrations)
1,CNC(=O)[C@H](O)[C@@H](O)C(=O)N1CCC(c2ccc(C(F)(F)F)cc2)CC1 [Compound 35],C (less than 10% inhibition)
2,CNC(=O)[C@H](O)[C@@H](O)C(=O)N1CCC(c2ccc3ccccc3c2)CC1 [Compound 36],C (less than 10% inhibition)
3,CNC(=O)[C@H](O)[C@@H](O)C(=O)N1CCN(c2ccc(-c3ncccn3)cc2)CC1 [Compound 37],B (10-30% inhibition)
4,CNC(=O)[C@H](O)[C@@H](O)C(=O)Nc1ccc(N2CCN(C)CC2)cc1 [Compound 38],C (less than 10% inhibition)
5,CNC(=O)[C@H](O)[C@@H](O)C(=O)Nc1ccc(OCCN(C)C)cc1 [Compound 39],B (10-30% inhibition)

# Same assay, conditions: concentration 12.50 (unit not given)
row,Compound,LpxC enzyme assay rating (% inhibition at indicated concentrations)
1,CNC(=O)[C@H](O)[C@@H](O)C(=O)N1CCC(c2ccc(C(F)(F)F)cc2)CC1 [Compound 35],C (less than 10% inhibition)
2,CNC(=O)[C@H](O)[C@@H](O)C(=O)N1CCC(c2ccc3ccccc3c2)CC1 [Compound 36],C (less than 10% inhibition)
3,CNC(=O)[C@H](O)[C@@H](O)C(=O)N1CCN(c2ccc(-c3ncccn3)cc2)CC1 [Compound 37],C (less than 10% inhibition)
4,CNC(=O)[C@H](O)[C@@H](O)C(=O)Nc1ccc(N2CCN(C)CC2)cc1 [Compound 38],C (less than 10% inhibition)
5,CNC(=O)[C@H](O)[C@@H](O)C(=O)Nc1ccc(OCCN(C)C)cc1 [Compound 39],C (less than 10% inhibition)

# Same assay, conditions: concentration 25 (unit not given)
row,Compound,LpxC enzyme assay rating (% inhibition at indicated concentrations)
1,CNC(=O)[C@H](O)[C@@H](O)C(=O)N1CCC(c2ccc(C(F)(F)F)cc2)CC1 [Compound 35],C (less than 10% inhibition)
2,CNC(=O)[C@H](O)[C@@H](O)C(=O)N1CCC(c2ccc3ccccc3c2)CC1 [Compound 36],C (less than 10% inhibition)
3,CNC(=O)[C@H](O)[C@@H](O)C(=O)N1CCN(c2ccc(-c3ncccn3)cc2)CC1 [Compound 37],B (10-30% inhibition)
4,CNC(=O)[C@H](O)[C@@H](O)C(=O)Nc1ccc(N2CCN(C)CC2)cc1 [Compound 38],C (less than 10% inhibition)
5,CNC(=O)[C@H](O)[C@@H](O)C(=O)Nc1ccc(OCCN(C)C)cc1 [Compound 39],C (less than 10% inhibition)

# Same assay, conditions: concentration 50 (unit not given)
row,Compound,LpxC enzyme assay rating (% inhibition at indicated concentrations)
1,CNC(=O)[C@H](O)[C@@H](O)C(=O)N1CCC(c2ccc(C(F)(F)F)cc2)CC1 [Compound 35],B (10-30% inhibition)
2,CNC(=O)[C@H](O)[C@@H](O)C(=O)N1CCC(c2ccc3ccccc3c2)CC1 [Compound 36],C (less than 10% inhibition)
3,CNC(=O)[C@H](O)[C@@H](O)C(=O)N1CCN(c2ccc(-c3ncccn3)cc2)CC1 [Compound 37],C (less than 10% inhibition)
4,CNC(=O)[C@H](O)[C@@H](O)C(=O)Nc1ccc(N2CCN(C)CC2)cc1 [Compound 38],B (10-30% inhibition)
5,CNC(=O)[C@H](O)[C@@H](O)C(=O)Nc1ccc(OCCN(C)C)cc1 [Compound 39],B (10-30% inhibition)
